# According to patent US10526646B2, “Chromogenic peroxidase substrates” (Dako Denmark A/S, priority 2015, dated 2020):
# Assays:
# [1] = UV-VIS absorbance maxima of chromogenic conjugates and mixtures; type: physicochemical
# Description: “Spectrally narrow” refers to a chromogen having less that 50 nm broadness at its maximum absorbance at half peak height by UV-VIS spectroscopy, measured in +99% water at pH, 6-8 in 10 μM concentration. A “magenta chromogen” is a spectrally narrow chromogen with peak absorbance between 525 and 530 nm, measured in +99% water at pH, 6.0-8.0 in 10 μM concentration. A “greenish-yellow chromogen” is a chromogen with peak absorbance below 475 nm and less than 10% absorbance at 530 nm or above relative to the peak absorbance, measured in +99% water at pH, 6.0-8.0 in 10 μM concentration. A “yellow chromogen” is a chromogen with peak absorbance below 505 nm and less than 10% absorbance at 530 nm or above relative to the peak absorbance, measured in +99% water at pH, 6.0-8.0 in 10 μM concentration. A “cyan chromogen” is a chromogen having maximal absorbance above 615 nm and less than 10% relative absorbance at any wavelength between 530 and 400 nm relative to the peak absorbance, measured in +99% water at pH, 6.0-8.0 m 10 μM concentration. An “orange chromogen” is a “spectrally narrow” chromogen that has maximum absorbance between 495 and 520 nm, measured in +99% water at pH, 6-8 in 10 μM concentration. A “dichroic chromogen” is a chromogen that has at least two absorbance maxima, separated by a local minimum at least 50 nm wide and one further global minimum between 390 and 700 nm measured in water between pH 6 and 8.
# HRP [2] = molecular target: T1, HRP (Armoracia rusticana, UniProt P00433); assay: IHC staining of FFPE human tissues and Her2 control cell lines, Envision+ Dual link HRP visualization, DAB as reference; design: species or system horse radish; details: for colour of IHC stain / stain intensity and crispness compared with DAB: tested in 0.4 to 1 mM; for stain intensity and crispness compared with DAB: low and medium expression targets; for IHC staining performance of Rhodamine 6G derivatives with different 4-hydroxy cinnamic acid derivatives: peroxidase substrate moiety varied
# T1 construct: purchased Dako K4061
# T1 sequence (P00433 31-338): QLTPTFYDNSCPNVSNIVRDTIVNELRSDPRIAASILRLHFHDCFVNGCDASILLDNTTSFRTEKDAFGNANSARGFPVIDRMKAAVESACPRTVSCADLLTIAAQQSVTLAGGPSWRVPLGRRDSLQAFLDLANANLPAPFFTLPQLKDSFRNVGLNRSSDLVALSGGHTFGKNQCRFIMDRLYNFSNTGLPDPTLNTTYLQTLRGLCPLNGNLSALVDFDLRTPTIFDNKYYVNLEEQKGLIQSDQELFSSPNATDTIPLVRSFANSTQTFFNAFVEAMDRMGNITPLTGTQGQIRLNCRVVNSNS
# [3] = Solubility in substrate buffer as function of percentage of NMP; type: physicochemical
# Description: Only Compound 6 having a piperazine amide stands out by absorbing at 536 nm, around 5 nm above the esters comprising Compounds 2, 13, 14 and 15 all with abs max within 531-533 nm. […] Addition of NMP to the buffer in all cases increased chromogen solubility. See result table below of the solubility of 2, 13 and 15 as function of percentage of NMP as organic co solvent, 0% representing neat aqueous buffer 50 mM imidazole: HCl, pH 6.8, 3% and 10% said percent.
# HRP [4] = molecular target: T1, HRP; assay: Tissue staining with mixtures of chromogens in chromogen buffer; design: species or system horse radish; details: alone
# HRP [5] = molecular target: T1, HRP; assay: Triple immunohistochemical staining (Ki67, CD20, Her2) on Dako Autostainer; design: species or system horse radish; details: 0.5 mM conjugate, 50 mM imidazole:HCl pH 6.8, 0.003% hydrogen peroxide, 2.5% NMP, 5 min
# Description: The exemplary triple staining method employed DAB in combination with Compounds 2 and 8, on a Dako Autostainer at room temperature. The steps of the method included: • 1. Blocking of endogenous peroxidase with peroxidase block (Dako S2023), 5 min. • 2. antiKi67 RTU antibody (Dako IR626), 20 mm • 3. Envision+dual Link HRP (Dako K4061), 20 min • 4. DAB (Dako K3468) 5 min. • 5. HRP quenching with peroxidase block (Dako S2023) with addition of 5 mg/mL alphacyano cinnamic acid, 5 min. • 6. antiCD20cy RTU antibody (Dako IR604), 20 min • 7. Envision+dual Link HRP (Dako K4061), 20 min • 8. 0.5 mM compound 2 in 50 mM imidazole: HCl pH 6.8, 0.003% hydrogen peroxide and 2.5% NMP, 5 min. • 9. HRP quenching with peroxidase block (Dako S2023) with addition of 5 mg/mL alphacyano cinnamic acid, 5 min. • 10. antiHer2 (Dako vial ST301 from HercepTest kit SK001) 20 min. • 11. Envision+dual Link HRP (Dako K4061), 20 min • 12. 0.5 mM compound 8 in 50 mM imidazole: HCl pH 6.8, 0.003% hydrogen peroxide and 2.5% NMP, 5 min. • 13. Counter stain with haematoxylin (Dako S3301)
# [6] = imidazole:HCl buffer (substrate buffer) with 3% NMP, aqueous buffer, 3% NMP in 50 mM imidazole:HCl pH 6.8
# [7] = imidazole:HCl buffer (substrate buffer) with 10% NMP, aqueous with cosolvent or surfactant or cyclodextrin, 10% NMP in 50 mM imidazole:HCl pH 6.8
# [8] = imidazole:HCl buffer (substrate buffer), 0% NMP, neat aqueous buffer 50 mM imidazole:HCl pH 6.8
Absp nm (max) [1] [nm],colour of IHC stain (HRP [2]),stain intensity and crispness compared with DAB (HRP [2]),SMILES,other results
,,,CC/N=c1\cc2oc3cc(NCC)c(C)cc3c(-c3ccccc3C(=O)N3CCN(C(=O)c4ccc(-c5c6ccc(=O)cc-6oc6cc(O)ccc56)c(C(=O)O)c4)CC3)c-2cc1C [6G compound],colour of the compound as chromogen [1]: orange
505,,,"N=c1ccc2c(-c3ccccc3C(=O)OCC(=O)NCCOCCOCCNC(=O)/C=C/c3ccc(O)cc3)c3ccc(N)cc3oc-2c1 [Compound 1, Rhodamine 110-L12-Cou]",
561,purple stains,matched DAB in intensity and crispness,"CCN(CC)c1ccc2c(-c3ccccc3C(=O)OCC(=O)NCCOCCOCCNC(=O)/C=C/c3ccc(O)cc3)c3ccc(=[N+](CC)CC)cc-3oc2c1 [Compound 4, RhodamineB-L12-Cou]",
584,,,"O=C(/C=C/c1ccc(O)cc1)NCCOCCOCCNC(=O)COC(=O)c1ccccc1C1=c2cc3c4c(c2Oc2c1cc1c5c2CCCN5CCC1)CCC[N+]=4CCC3 [Compound 5, Rhodamine101-L12-Cou]",
536,slightly purplish red stains,matched DAB in intensity and crispness,"CC/N=c1\cc2oc3cc(NCC)c(C)cc3c(-c3ccccc3C(=O)N3CCN(CC(=O)NCCOCCOCCNC(=O)/C=C/c4ccc(O)cc4)CC3)c-2cc1C [Compound 6, Rhodamine 6G-Pip-L12-Cou]",solubility in the substrate buffer relative to Compound 2 [3]: significantly increased solubility
561,,,"CN(C)c1ccc2c(-c3ccccc3C(=O)N3CCN(CC(=O)NCCOCCOCCNC(=O)/C=C/c4ccc(O)cc4)CC3)c3ccc(=[N+](C)C)cc-3oc2c1 [Compound 7, TM-Rhodamine-Pip-L12-Cou]",
458,slightly greenish yellow stains,almost matched DAB in intensity,"O=C(O)COc1ccc2c(-c3ccccc3C(=O)OCC(=O)NCCOCCOCCNC(=O)/C=C/c3ccc(O)cc3)c3ccc(=O)cc-3oc2c1 [Compound 9, (O-carboxymethyl)-Flu-L12-Cou]",colour of stain of compound alone (HRP [4]): unpleasing greenish yellow
503,,,"O=C(/C=C/c1ccc(O)cc1)NCCOCCOCCNC(=O)COC(=O)c1ccccc1-c1c2ccc(=O)cc-2oc2cc(O)ccc12 [Compound 10, Flu-L12-Cou]",colour of stain of compound alone (HRP [4]): brownish hue
517,,,"O=C(/C=C/c1ccc(O)cc1)NCCOCCOCCNC(=O)COC(=O)c1ccccc1-c1c2cc(Cl)c(=O)cc-2oc2cc(O)c(Cl)cc12 [Compound 11, 2,7Dichloro-Flu-L12-Cou]",
508,,,"O=C(/C=C/c1ccc(O)cc1)NCCOCCOCCNC(=O)CN1CCN(C(=O)c2ccccc2-c2c3ccc(=O)cc-3oc3cc(O)ccc23)CC1 [Compound 12, Flu-Pip-L12-Cou]",
532,red stains,matched DAB in intensity and crispness,"CC/N=c1\cc2oc3cc(NCC)c(C)cc3c(-c3ccccc3C(=O)OCC(=O)NCCNC(=O)/C=C/c3ccc(O)cc3)c-2cc1C [Compound 13, Rho6G-L6-Cou]","solubility [3, 6]: 900 µM; solubility [3, 7]: 1800 µM; solubility [3, 8]: 500 µM; solubility in the substrate buffer relative to Compound 2 [3]: reduced solubility"
531,red stains,matched DAB in intensity and crispness,"CC/N=c1\cc2oc3cc(NCC)c(C)cc3c(-c3ccccc3C(=O)OCCN3CCN(CC(=O)NCCOCCOCCNC(=O)/C=C/c4ccc(O)cc4)CC3)c-2cc1C [Compound 14, Rhodamine 6G-Et-Pip-L12-Cou]",solubility in the substrate buffer relative to Compound 2 [3]: significantly increased solubility
531,,,"CC/N=c1\cc2oc3cc(NCC)c(C)cc3c(-c3ccccc3C(=O)OCC(=O)NCCOCCOCCNC(=O)/C=C/c3ccc(O)c(O)c3)c-2cc1C [Compound 16, Rhodamine 6G-L12-Caf]",IHC staining performance of Rhodamine 6G derivatives with different 4-hydroxy cinnamic acid derivatives (HRP [2]): performed poorly
531,,,"CC/N=c1\cc2oc3cc(NCC)c(C)cc3c(-c3ccccc3C(=O)OCC(=O)NCCOCCOCCNC(=O)/C=C/c3ccc(O)cc3O)c-2cc1C [Compound 17, Rhodamine 6G-L12-2,4-OH-Cin]",IHC staining performance of Rhodamine 6G derivatives with different 4-hydroxy cinnamic acid derivatives (HRP [2]): strong stains but also some background
531,,,"CC/N=c1\cc2oc3cc(NCC)c(C)cc3c(-c3ccccc3C(=O)OCC(=O)NCCOCCOCCNC(=O)/C=C/c3ccc(O)c(OC)c3)c-2cc1C [Compound 18, Rhodamine 6G-12-Fer]",IHC staining performance of Rhodamine 6G derivatives with different 4-hydroxy cinnamic acid derivatives (HRP [2]): performed acceptably
531,,,"CC/N=c1\cc2oc3cc(NCC)c(C)cc3c(-c3ccccc3C(=O)OCC(=O)NCCOCCOCCNC(=O)/C=C/c3cc(OC)c(O)c(OC)c3)c-2cc1C [Compound 19, Rhodamine 6G-L12-Sin]",IHC staining performance of Rhodamine 6G derivatives with different 4-hydroxy cinnamic acid derivatives (HRP [2]): performed poorly
,,,"CNCCNC [Compound 34A, N,N′-dimethyl ethylenediamine]",absorbance of Rhodamine 6G secondary amide / ester derivatives [1]: 531 nm
,,,CCN(CC)c1ccc(C(=C2C=CC(=[N+](CC)CC)C=C2)c2cc(OCC(=O)NCCOCCOCCNC(=O)/C=C/c3ccc(O)cc3)c(S(=O)(=O)O)cc2S(=O)(=O)O)cc1 [Compound 35],absorbance maximum ([1]; in neutral water): 640 nm
,,,"Nc1ccc(-c2ccc(N)c(N)c2)cc1N [DAB, 3,3′-diaminobenzidine, reference compound]","staining in the high expression range (HRP [2]; very high expression targets, trained observers): tended to over-stain and blackout morphological details; stain produced in triple staining (HRP [5]): brown ki67 nuclear stain"
,,,CC/N=c1\cc2oc3cc(NCC)c(C)cc3c(-c3ccccc3C(=O)N3CCN(C(=O)c4ccccc4-c4c5ccc(=O)cc-5oc5cc(OCC(=O)NCCOCCOCCNC(=O)OC(C)(C)C)ccc45)CC3)c-2cc1C [Formula XIVb],colour of the compound as chromogen [1]: orange-red color

SMILES,Absp nm (max) [1] [nm],colour of IHC stain (HRP [2]),stain intensity and crispness compared with DAB (HRP [2]),other results
"CN(C)c1ccc2c(-c3ccccc3C(=O)OCC(=O)NCCOCCOCCNC(=O)/C=C/c3ccc(O)cc3)c3ccc(=[N+](C)C)cc-3oc2c1 [Compound 3, TetramethylRhodamine-L12-Cou]",556,slightly redish purple stains,more than matched DAB in intensity and crispness,
"CC/N=c1\cc2oc3cc(NCC)c(C)cc3c(-c3ccccc3C(=O)OCC(=O)NCCOCCOCCNC(=O)COCC(=O)NCCOCCOCCNC(=O)/C=C/c3ccc(O)cc3)c-2cc1C [Compound 15, Rho6G-L27-Cou]",533,deep blue stains,more than matched DAB in intensity and crispness,"solubility [3, 6]: 1900 µM; solubility [3, 7]: 6000 to 7000 µM; solubility [3, 8]: 1700 µM; solubility in the substrate buffer relative to Compound 2 [3]: significantly increased solubility"
